Measurements: publication PMC8778818, “Synthesis, Structural Characterization and Anticancer Activity of New 5-Trifluoromethyl-2-thioxo-thiazolo[4,5-d]pyrimidine Derivatives” (Pharmaceuticals, 2022)

Tests used:
HCC-2998 = test: NCI-60 screen, Colon Cancer HCC-2998; assay type: cell-based, human; conditions: HCC-2998, five doses 10^−4–10^−8 M
[1] = MTT cell viability assay, HaCaT; assay type: cell-based, human; conditions: HaCaT keratinocytes (normal cell line), HaCaT human keratinocytes, 50 µM
Summary of the method: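 Cells seeded at 3 × 10^4 cells/well, after 24 h exposed to compounds at 50–5000 µM (final DMSO 0.05–1%) in serum-containing medium for 72 h at 37 °C. MTT reduction read at 560 nm; viability expressed as percentage of untreated control, mean of three experiments.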

SF-268 = test: NCI-60 screen, CNS Cancer SF-268; assay type: cell-based, human
RPMI-8226 = test: NCI-60 screen, Leukemia RPMI-8226; assay type: cell-based, human
UACC-257 = test: NCI-60 screen, Melanoma UACC-257; assay type: cell-based
ACHN = test: NCI-60 screen, Renal Cancer ACHN; assay type: cell-based, human
NCI-H322M = test: NCI-60 screen, Non-Small Cell Lung Cancer NCI-H322M; assay type: cell-based, human
A498 = test: NCI-60 screen, Renal Cancer A498; assay type: cell-based, human
UACC-62 = test: NCI-60 screen, Melanoma UACC-62; assay type: cell-based, human; conditions: UACC-62, 10^−5 M one dose
NCI-H23 = test: NCI-60 screen, Non-Small Cell Lung Cancer NCI-H23; assay type: cell-based, human
786-0 = test: NCI-60 screen, Renal Cancer 786-0; assay type: cell-based
MCF-7/WT = test: MTT cell viability assay, MCF-7/WT; assay type: cell-based; conditions: Homo sapiens, MCF7, 72 h, mean ± SD
Protocol: Twelve compounds (2a-e, 3a-d and 4a-c) at a concentration range of 50–5000 μM were tested for their antiproliferative potential against four human cancer cell lines (A375—melanotic melanoma, C32—amelanotic melanoma, DU145—prostate cancer androgen-independent, MCF-7/WT—breast adenocarcinoma) and two normal cell lines: Chinese Hamster Ovary (CHO-K1) and immortalized human keratinocytes from histologically normal skin (HaCaT).
To determine the antiproliferative activity of newly synthesized compounds, the following cell lines were used: human melanotic melanoma cell line (A375), human amelanotic melanoma cell line (C32), human breast adenocarcinoma cell line (MCF-7/WT), human prostate cancer androgen-independent (DU145) and two normal cell lines: hamster ovarian (CHO-K1) and immortalized human keratinocytes from histologically normal skin (HaCaT). The cells were obtained from the cell line bank of the Department of Molecular and Cellular Biology, Wroclaw Medical University. A375, C32, MCF-7/WT, DU145 and HaCaT cells were grown in a monolayer cultured in Dulbecco’s Modified Eagle’s Medium (DMEM, Sigma-Aldrich, Poznań, Poland), supplemented with 10% of fetal bovine serum (FBS, Gibco, Paisley, UK) and 1% of antibiotics (penicillin/streptomycin, Sigma-Aldrich) and CHO-K1 were grown in HAM’s F-12 medium (Sigma-Aldrich), supplemented with 10% fetal bovine serum (FBS, Gibco) and 1% of antibiotics (penicillin/streptomycin, Sigma-Aldrich). Cell lines were cultured in the polystyrene flasks 25 or 75 cm^2 (Thermo Fisher Scientific, Waltham, MA, USA), which were stored in 37 °C and 5% CO2 in a humidified 95% atmosphere (SteriCult, Thermo Scientific, Alab). The cell medium was exchanged twice a week. The exponentially growing cells were used throughout the experiments. The cells were rinsed with phosphate-buffered saline (PBS, Sigma-Aldrich) and trypsinized by Trypsin-EDTA 0.25% solution (Sigma-Aldrich).
The influence of the compounds was performed in a monolayer culture on cancer and normal cells. Compounds were initially dissolved in DMSO; further dilutions of the compound were performed in Dulbecco’s Modified Eagle’s Medium supplemented with 10% FBS. Compounds were tested in a 50–5000 µM concentration range. In the in vitro experiments, the concentrations of DMSO in the final solution of the compounds were used 0.05%; 0.1%; 0.5%; 1%, respectively.
Cell viability was determined using the MTT colorimetric assay. All cell lines were seeded into 96-well plates to a density of 3 × 10^4 cells/well. After 24 h, the culture supernatants were removed and appropriate dilutions of compounds in the culture medium (200 µL/well) were added to the cells’ monolayer cultures and incubated for an additional 72 h. After 72 h of exposition to the compounds and the removal of the culture medium, cell viability was determined by reducing the yellow dye 3-(4,5-dimethyl-2-thiazol)-2,5-diphenyl-2H-tetrazolium bromide (MTT assay, Sigma Saint Louis, MO, USA; In Vitro Toxicology Assay) to a blue formazan product. The absorbance of the resulting solutions in three duplicate experiments was measured at the wavelength of 560 nm in a microplate reader (EnSpire, Perkin Elmer, Kraków, Poland). MTT assay is a colorimetric method that estimates the rate of metabolism in viable cells. Absorbance is directly proportional to the number of viable cells. All the experiments were performed three times and the mean absorbance values were calculated. The methodology for the evaluation of the growth of human cancer and normal cells was described previously. The cell viability in each group was expressed as a percentage of control (untreated) cells.

[2] = Homo sapiens, five doses 10^−4–10^−8 M
[3] = Homo sapiens, five doses 10^−4–10^−8 M, read-out: log LC50 (the source's name) (converted)

## FC(F)(F)c1nc(Cl)c2sc(=S)n(-c3ccccc3)c2n1 [Compound 3b, 7-chloro-3-phenyl-5-(trifluoromethyl)[1, 3]thiazolo[4,5-d]pyrimidine-2(3H)-thione]
HCC-2998
  log TGI: −5.31 log M
HCC-2998; Homo sapiens
  GI50: 2.24 µM
  LC50: 12.9 µM
[1]
  viability at 72 h, 50 µM: 20%
SF-268; Homo sapiens, SF-268, five doses 10^−4–10^−8 M
  GI50: 1.78 µM
SF-268; Homo sapiens, SF-268, five doses 10^−4–10^−8 M, read-out: log LC50 (the source's name) (converted)
  CC50: 6.61 µM
SF-268; SF-268, 10^−5 M one dose
  Growth of Cells (%): 84.73%
RPMI-8226; Homo sapiens, RPMI-8226, five doses 10^−4–10^−8 M
  GI50: 2.51 µM
RPMI-8226; Homo sapiens, RPMI-8226, five doses 10^−4–10^−8 M, read-out: log LC50 (the source's name) (converted)
  CC50: > 100 µM
RPMI-8226; RPMI-8226, 10^−5 M one dose
  Growth of Cells (%): 44.45%
RPMI-8226; RPMI-8226, five doses 10^−4–10^−8 M
  log TGI: −5.11 log M
UACC-257; Homo sapiens, UACC-257, five doses 10^−4–10^−8 M
  GI50: 1.74 µM
UACC-257; Homo sapiens, UACC-257, five doses 10^−4–10^−8 M, read-out: log LC50 (the source's name) (converted)
  CC50: 7.94 µM
UACC-257; UACC-257, 10^−5 M one dose
  Growth of Cells (%): 19.38%
UACC-257; UACC-257, five doses 10^−4–10^−8 M
  log TGI: −5.43 log M
ACHN; 10^−5 M one dose
  Growth of Cells (%): 27.40%
ACHN; [2]
  GI50: 1.74 µM
ACHN; [3]
  CC50: 6.31 µM
ACHN; five doses 10^−4–10^−8 M
  log TGI: −5.48 log M
NCI-H322M; 10^−5 M one dose
  Growth of Cells (%): 101.54%
NCI-H322M; [2]
  GI50: 3.8 µM
NCI-H322M; [3]
  CC50: 38 µM
NCI-H322M; five doses 10^−4–10^−8 M
  log TGI: −4.90 log M
A498; A498, 10^−5 M one dose
  Growth of Cells (%): 91.46%
A498; A498, five doses 10^−4–10^−8 M
  log TGI: −4.57 log M
A498; Homo sapiens, A498, five doses 10^−4–10^−8 M
  GI50: 13.5 µM
A498; Homo sapiens, A498, five doses 10^−4–10^−8 M, read-out: log LC50 (the source's name) (converted)
  CC50: 52.5 µM
UACC-62
  Growth of Cells (%): 79.14%
NCI-H23; Homo sapiens, NCI-H23, five doses 10^−4–10^−8 M
  GI50: 3.09 µM
NCI-H23; Homo sapiens, NCI-H23, five doses 10^−4–10^−8 M, read-out: log LC50 (the source's name) (converted)
  CC50: 93.3 µM
NCI-H23; NCI-H23, 10^−5 M one dose
  Growth of Cells (%): 99.73%
NCI-H23; NCI-H23, five doses 10^−4–10^−8 M
  log TGI: −4.95 log M
786-0; 786-0, 10^−5 M one dose
  Growth of Cells (%): 90.12%
786-0; 786-0, five doses 10^−4–10^−8 M
  log TGI: −5.42 log M
786-0; Homo sapiens, 786-0, five doses 10^−4–10^−8 M
  GI50: 1.95 µM
786-0; Homo sapiens, 786-0, five doses 10^−4–10^−8 M, read-out: log LC50 (the source's name) (converted)
  CC50: 7.41 µM
MCF-7/WT
  IC50: 49 ± 1 µM
